In patent US6653478B2, “Substituted benzimidazol-2-ones as vasopressin receptor antagonists and neuropeptide Y modulators” (Ortho-McNeil Pharmaceutical, Inc., priority 2000, dated 2003):

Tests used:
NPY2 receptors = target: T1, NPY2 receptors (Homo sapiens, UniProt P49146); test: Neuropeptide Y receptor binding assay (125I-PYY, KAN-TS cell membranes); conditions: 10 μM compound; for inhibition at 10 µM: read-out: NPY-2@10, % Inh
T1 construct: Cell Membranes from KAN-TS cells having NPY2 receptors; endogenous in cells; host or cells: KAN-TS cells (membranes)
T1 sequence (P49146 1-381): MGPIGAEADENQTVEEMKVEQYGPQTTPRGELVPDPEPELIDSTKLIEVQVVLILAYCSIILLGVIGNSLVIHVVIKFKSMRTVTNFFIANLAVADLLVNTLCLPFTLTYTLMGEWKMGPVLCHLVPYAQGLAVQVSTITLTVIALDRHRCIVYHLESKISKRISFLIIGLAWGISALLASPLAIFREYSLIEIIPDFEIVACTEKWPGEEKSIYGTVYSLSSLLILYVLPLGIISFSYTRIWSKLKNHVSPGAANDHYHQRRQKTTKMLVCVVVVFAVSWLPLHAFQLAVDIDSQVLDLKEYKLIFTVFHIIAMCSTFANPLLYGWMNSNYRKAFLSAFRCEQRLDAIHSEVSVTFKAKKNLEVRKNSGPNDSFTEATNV
Protocol: Neuropeptide Y Receptor Binding Assay
Load 96-well RIA racks with RIA vials (Sarstedt, cat. #73.1055)
Prepare membranes—use 2×15 cm confluent plates/96-well assay plate
Add 14 mls Homogenization buffer/cell pellet
Homogenize at high speed for 15 seconds
Transfer to 15 ml conical tube and spin 5′ at 4° C. at setting 3 in RT6000 centrifuge
Transfer supernatant to 30 ml Corex tube
Balance and spin 25′ at 15,000 rpm at 4° C.
Resuspend pellet in 10 mls Binding buffer
Homogenize at high speed for 15 sec.
Bring volume up to 50 mls in Binding buffer (25 mls/2×96-well plates)
Keep on ice until use or freeze in aliquots (2 plates/tube) in −70° C.
Prepare ^125I-PYY (for 2×96-well compound plates)
Dilute 50 uCi ^125I-PYY in 1 ml H2O
Add 0.4 ml 10% BSA to 20 ml Binding buffer
Add 150 μl ^125I-PYY, mix well
NSB (1 μM PYY final conc.): 40 μl PYY (100 μM stock)+60 μl 30% DMSO in HEPES=40 μM PYY—add 5 μl/well
Total Binding: Add 5 μl/well of Compound Diluent
Add 5 μl compound (final conc. @10 μM)
Incubate at R.T. for 1 hr.
Spin plates for 10′ at setting 9 in RT6000 centrifuge
Aspirate supernatant from tubes, add 300 μl PBS and aspirate again.
After plates are washed and aspirated, put individual tubes in 12×75 mm polypropylene carrier tubes. Count on gamma counter.

human V1b receptor = target: T2, human V1b receptor (Homo sapiens, UniProt P47901); test: V1b binding assay (3H-AVP displacement, HEK-293 membranes); parameters: expressed in transfected cells; host or cells: HEK-293 (membranes); conditions: for inhibition at 1 µM: read-out: V1b@1.0, % Inh; for inhibition at 10 µM: 10 μM compound, read-out: V1b % Inh @10
T2 sequence (P47901 1-424): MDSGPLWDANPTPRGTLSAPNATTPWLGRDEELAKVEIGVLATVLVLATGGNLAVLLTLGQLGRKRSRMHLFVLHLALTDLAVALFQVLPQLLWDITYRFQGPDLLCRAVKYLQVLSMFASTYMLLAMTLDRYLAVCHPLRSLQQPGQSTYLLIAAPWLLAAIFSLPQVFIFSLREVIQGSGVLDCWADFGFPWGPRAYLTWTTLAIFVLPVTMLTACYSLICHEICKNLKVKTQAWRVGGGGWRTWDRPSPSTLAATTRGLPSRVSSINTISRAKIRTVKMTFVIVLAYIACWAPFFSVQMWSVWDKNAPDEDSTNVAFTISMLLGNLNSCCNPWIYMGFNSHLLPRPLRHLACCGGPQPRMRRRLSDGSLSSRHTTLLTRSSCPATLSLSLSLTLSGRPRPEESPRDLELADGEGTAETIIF
Protocol: (§1) V1a, V1b or V2 Binding Assay
(§2) Receptor binding studies were performed using recombinant human V1a, V1b or V2 receptors. Cellular membranes were harvested from HEK-293 cells transfected to express either the V1a, V1b or V2 receptors. Compounds were evaluated for their ability to displace ^3H-arginine vasopressin (^3H-AVP; specific activity 40-87 Ci/mmol; NEN Life Sciences, Boston, Mass.). Compounds were solubilized in dimethylsulfoxide (DMSO) and diluted to working concentration of 10% DMSO with assay buffer (50 mM Tris, 5 mM MgCl2, 0.1% BSA, pH 7.5). Assay buffer was supplemented with several protease inhibitors (1 mM Pefabloc, 5 μg/ml aprotinin/leupeptin/pepstatin A, 50 μg/ml bacitracin; Sigma Chemical, St. Louis, Mo.). Non-specific binding was determined using 1.25 μM arginine vasopressin (AVP; Peninsula Labs, Belmont, Calif.). Assay reagents and test compounds were added to 96-well round bottom polypropylene plates (145 μl buffer, 5 μl compound in 10% DMSO, 25 μl buffer containing 10,000 cpm tracer, 25 μl cell membrane). After incubation for 1 hour at room temperature, the well contents were aspirated across a Unifilter GF/C plate (Packard Instrument, Downers Grove, Ill.) which had been presoaked in 0.3% polyethyleneimine to prevent peptide sticking. The wells were washed repeatedly with cold saline containing 0.05% Tween 20. The plate was then dried and 25 μl Microscint-20 cocktail (Packard Instruments) added to each well. The plates were sealed and counted on a TopCount scintillation counter (Packard Instruments) using quench correction.

human V2 receptor = human V2 receptor (Homo sapiens, UniProt P30518); test: V2 binding assay (3H-AVP displacement, HEK-293 membranes); parameters: expressed in transfected cells; host or cells: HEK-293 (membranes); conditions: 1.0 μM compound; for inhibition at 1 µM: read-out: V2@1.0, % Inh
human V2 receptor, sequence (P30518 whole entry): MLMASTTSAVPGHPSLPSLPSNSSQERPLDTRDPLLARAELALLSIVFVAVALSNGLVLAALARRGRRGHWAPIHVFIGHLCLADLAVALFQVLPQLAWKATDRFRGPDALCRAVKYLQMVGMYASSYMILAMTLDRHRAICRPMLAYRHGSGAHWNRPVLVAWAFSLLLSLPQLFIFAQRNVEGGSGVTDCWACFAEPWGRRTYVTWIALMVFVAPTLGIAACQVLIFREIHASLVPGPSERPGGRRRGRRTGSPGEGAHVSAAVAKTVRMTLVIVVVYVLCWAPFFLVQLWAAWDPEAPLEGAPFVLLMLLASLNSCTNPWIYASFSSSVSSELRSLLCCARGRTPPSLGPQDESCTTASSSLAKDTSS
Protocol: as §1, §2

human V1a receptor = human V1a receptor (Homo sapiens, UniProt P37288); test: V1a binding assay (3H-AVP displacement, HEK-293 membranes); parameters: expressed in transfected cells; host or cells: HEK-293 (membranes); conditions: for inhibition at 1 µM: read-out: V1a@1.0, % Inh
human V1a receptor, sequence (P37288 whole entry): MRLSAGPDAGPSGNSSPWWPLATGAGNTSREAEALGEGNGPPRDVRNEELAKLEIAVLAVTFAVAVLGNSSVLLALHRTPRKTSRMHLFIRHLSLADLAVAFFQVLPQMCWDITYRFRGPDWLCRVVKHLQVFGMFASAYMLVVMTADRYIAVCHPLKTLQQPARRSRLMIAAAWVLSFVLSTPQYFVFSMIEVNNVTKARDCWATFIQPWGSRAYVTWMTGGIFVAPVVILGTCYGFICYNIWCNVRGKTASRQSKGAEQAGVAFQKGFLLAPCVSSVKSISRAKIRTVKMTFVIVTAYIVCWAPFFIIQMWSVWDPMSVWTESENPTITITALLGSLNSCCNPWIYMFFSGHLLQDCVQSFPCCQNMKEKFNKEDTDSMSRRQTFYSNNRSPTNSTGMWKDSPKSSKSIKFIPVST
Protocol: as §1, §2

Row | inhibition at 10 µM (NPY2 receptors) [%] | inhibition at 1 µM (human V1b receptor; 1.0 μM compound) [%] | inhibition at 1 µM (human V2 receptor) [%] | IC50 (human V1a receptor) [nM] | inhibition at 1 µM (human V1a receptor; 1.0 μM compound) [%] | Structure (SMILES) | further results
1 |  |  |  |  |  | COc1ccccc1NC(=S)N1CCC(n2c(=O)n(CCCN3CCCC3)c3ccccc32)CC1 [Compound 87, 1-[(N1-Piperidinocarbothioyl-(2-methoxyphenyl)amino)-4-yl]-3-(3-pyrrolidinylpropyl)-1,3-dihydrobenzimidazol-2-one] | NPY-2@10, % Inh (NPY2 receptors): 13%; V1b@1.0, % Inh (human V1b receptor; 1.0 μM compound): 23%; V2@1.0, % Inh (human V2 receptor): 3%; V1a@1.0, % Inh (human V1a receptor; 1.0 μM compound): 30%
2 | 6 | 36 | 24 | 283 |  | CN1CCN(CCCn2c(=O)n(C3CCN(C(=O)NC(c4ccccc4)c4ccccc4)CC3)c3ccccc32)CC1 [Compound 100, 1-[(N1-piperidinocarbonylbiphenylmethylamino)-4-yl]-3-(3-N-(N-Methylpiperazino)propyl)-1,3-dihydrobenzimidazol-2-one] | 
3 | 35 |  | 0 |  | 49 | CCOC(=O)CCn1c(=O)n(C2CCN(C(=S)NC(c3ccccc3)c3ccccc3)CC2)c2ccccc21 [Compound 60, 1-[(N1-Piperidinocarbothioyldiphenylmethylamino)-4-yl]-3-(2-carboethoxyethyl)-1,3-dihydro-benzimidazol-2-one] | inhibition at 10 µM (human V1b receptor): 19%
4 | 11 |  |  | 580 |  | COC(=O)C(Cc1ccccc1)NC(=S)N1CCC(n2c(=O)n(CCCNC(=O)OCc3ccccc3)c3ccccc32)CC1 (stereo not shown) [Compound 52] | inhibition at 10 µM (human V1b receptor): 13%
5 | 56 | 24 | 0 |  | 64 | CCN(CC)CCn1c(=O)n(C2CCN(C(=O)NC(c3ccccc3)c3ccccc3)CC2)c2ccccc21 [Compound 91, 1-(N1-Piperidinocarbonyldiphenylmethylamino-4-yl)-3-(2-N,N-diethyaminoethyl)benzimidazol-2-one] | 
6 | 21 | 43 | 0 | 14 |  | CC1CC(C)CN(CCCn2c(=O)n(C3CCN(C(=O)NC(c4ccccc4)c4ccccc4)CC3)c3ccccc32)C1 (stereo not shown) [Compound 101] | 
7 | 58 | 14 | 0 | 56 |  | Cc1ccccc1NC(=S)N1CCC(n2c(=O)n(CCCN3CCCCC3)c3ccccc32)CC1 [Compound 109, 1-[(N1-piperidinocarbothioyl-2-methylphenylamino)-4-yl]-3-(3-N-piperidinylpropyl)-1,3-dihydrobenzimidazol-2-one] | 
8 | 81 |  | 8 | 20 |  | CCN(CC)CCCn1c(=O)n(C2CCN(C(=S)NC(c3ccccc3)c3ccccc3)CC2)c2ccccc21 [Compound 85, 1-[(N1-piperidinocarbothioylbiphenylmethylamino)-4-yl]-3-(3-N,N-diethylaminopropyl)-1,3-dihydrobenzimidazol-2-one] | IC50 (human V1b receptor): 230 nM
9 | 16 |  | 0 |  | 45 | CCN(CC)CCn1c(=O)n(C2CCN(C(=S)NC(C)c3ccc(F)cc3)CC2)c2ccccc21 (stereo not shown) [Compound 36, 1-(N1-Piperidinocarbothioyl-(4-fluoro-[…]-methylbenzylamino)-4-yl)-3-(2-diethyaminoethyl)-1,3-dihydrobenzimidazol-2-one] | inhibition at 10 µM (human V1b receptor): 20%
10 | 23 | 41 | 6 | 123 |  | O=C(NC(c1ccccc1)c1ccccc1)N1CCC(n2c(=O)n(CCCN3CC=CC3)c3ccccc32)CC1 [Compound 102] | 
11 | 78 | 33 | 8 |  | 68 | CN1CCCC1CCn1c(=O)n(C2CCN(C(=O)NC(c3ccccc3)c3ccccc3)CC2)c2ccccc21 (stereo not shown) [Compound 94] | 
12 | 15 |  | 14 |  | 12 | O=c1[nH]c2ccccc2n1C1CCN(C(=S)NCc2ccc(Cl)cc2Cl)CC1 [Compound 17] | inhibition at 10 µM (human V1b receptor): 7%
13 | 89 |  | 18 | 4 |  | O=c1n(CCCN2CCCCC2)c2ccccc2n1C1CCN(C(=S)NC(c2ccccc2)c2ccccc2)CC1 [Compound 81, 1-[(N1-piperidinocarbothioylbiphenylmethylamino)-4-yl]-3-(3-N-piperidinylpropyl)-1,3-dihydrobenzimidazol-2-one] | IC50 (human V1b receptor): 76 nM
14 | 18 |  | 0 |  | 17 | O=c1n(Cc2ccccc2)c2ccccc2n1C1CCN(C(=S)NCCc2ccc(Cl)cc2)CC1 [Compound 39, 1-(N1-Piperidinocarbothioyl-2-(4-chlorophenyl)ethylamino-4-yl)-3-benzyl-1,3-dihydrobenzimidazol-2-one] | inhibition at 10 µM (human V1b receptor): 7%
15 | 34 |  | 51 | 380 |  | Cn1c(=O)n(C2CCN(C(=S)NC(c3ccccc3)c3ccccc3)CC2)c2ccccc21 [Compound 10, 3-Methyl-1-[(N1-Piperidinocarbothioyldiphenylmethylamino)-4-yl]-1,3-dihydro-benzimidazol-2-one] | 
16 | 15 |  | 9 |  | 54 | CN1CCN(C(=O)C(Cc2ccccc2)NC(=S)N2CCC(n3c(=O)[nH]c4ccccc43)CC2)CC1 (stereo not shown) [Compound 45] | 
17 | 11 |  | 0 |  | 8 | O=C(O)C(Cc1ccccc1)NC(=S)N1CCC(n2c(=O)[nH]c3ccccc32)CC1 (stereo not shown) [Compound 41] | 
18 | 69 |  | 42 | 270 |  | O=c1n(CCN2CCOCC2)c2ccccc2n1C1CCN(C(=S)NC(c2ccccc2)c2ccccc2)CC1 [Compound 19, 1-[(N1-Piperidinocarbothioyldiphenylmethylamino)-4-yl]-3-(2-N-morpholinoethyl)-1,3-dihydro-benzimidazol-2-one] | 
19 | 13 |  | 19 |  | 31 | CCc1ccc(CCNC(=S)N2CCC(n3c(=O)[nH]c4ccccc43)CC2)cc1 [Compound 21] | 
